# Measured values as given in article PMC9663589, “Anti-tumor effects of P-LPK-CPT, a peptide-camptothecin conjugate, in colorectal cancer” (Communications Biology, 2022).
# Entries after “also recorded” stand apart in the source; their conditions may differ. Like-named read-outs stand apart in the source and are kept apart here. No end group written: not given here.
# T1: recombinant SLC1A5 (Homo sapiens, UniProt Q15758)
# T1 sequence (Q15758 1-541): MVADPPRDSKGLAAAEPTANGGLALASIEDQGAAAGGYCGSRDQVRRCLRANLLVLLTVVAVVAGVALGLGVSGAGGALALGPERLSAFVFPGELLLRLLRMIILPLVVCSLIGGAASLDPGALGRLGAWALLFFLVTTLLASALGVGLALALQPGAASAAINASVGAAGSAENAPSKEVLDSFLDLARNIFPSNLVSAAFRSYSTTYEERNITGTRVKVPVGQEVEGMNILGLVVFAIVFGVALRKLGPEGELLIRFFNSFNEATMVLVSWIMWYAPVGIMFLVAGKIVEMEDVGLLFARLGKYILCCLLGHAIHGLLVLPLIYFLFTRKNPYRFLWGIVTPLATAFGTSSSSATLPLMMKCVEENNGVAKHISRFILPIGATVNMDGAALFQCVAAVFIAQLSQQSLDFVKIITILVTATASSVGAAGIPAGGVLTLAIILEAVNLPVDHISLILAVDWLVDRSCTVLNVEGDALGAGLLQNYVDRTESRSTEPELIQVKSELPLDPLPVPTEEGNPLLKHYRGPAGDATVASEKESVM
# T2: recombinant SLC1A5 (UniProt Q15758 1-541)
# T2 construct: glutamine transporter solute carrier 1 family member 5 (SLC1A5, ASCT2), recombinant protein; additional methods are in the Supplementary Material; also called solute carrier 1 family member 5; ASCT2
# T2 sequence: T1 sequence (Q15758 1-541)
# B1: P-LPK peptide (peptide)
# peptide: LPKTVSSDMSLN
# notes: twelve-residue peptide selected from an M13 phage-display peptide library on CRC cells; Unlabelled peptide, analyte in the SPR experiment; source: synthetic peptide
# How the values were obtained:
# HCT116 cells [1] = experiment: EdU incorporation assay (DNA synthesis); format: cell-based, human
# Method: (§1) 96-well plates were seeded at 3000 cells per well and exposed to different treatments. 50 μM EdU labeling medium (RiboBio) was added and incubated for 2 h at 37 °C. The cells were then fixed with 4% […] for 10 min. After being washed with PBS, cells were stained with anti-EdU working solution for 30 min and stained with Hoechst33342 for 10 min. Cells were observed using fluorescent microscopy. The percentage of EdU-positive cells was calculated from five random fields in three wells.
# LoVo cells = experiment: EdU incorporation assay (DNA synthesis); format: cell-based, human
# Method: as §1
# NCM460 cells = experiment: EdU incorporation assay (DNA synthesis); format: cell-based, human
# Method: as §1
# HCT116 tumors [2] = experiment: HCT116 xenograft therapeutic evaluation; details: CPT 5 mg/kg iv twice a week
# Method: Female BALB/c nude mice (4–6 weeks with weights of 18–22 g) were obtained from Shanghai Super-B&K Laboratory Animal Corp. Ltd. (Shanghai, China) and kept in specific pathogen free, temperature-controlled isolation. All animal studies were conducted in accordance with the principles and procedures outlined in the Guide for the Care and Use of Laboratory Animals and were approved by Ethics committee. To generate the HCT116 and U87 tumor model, about 1 × 10^6 tumor cells were subcutaneously injected into the right front flank of 4 weeks old athymic nude mice.
# The HCT116 tumor-bearing mice were randomly divided into 4 groups (n = 7 for each group). […] The tumors were measured by a vernier caliper twice a week. The weights of the mice were recorded. Then, the mice were sacrificed at the 28th day. The tumors were dissected and weighted. The tumor volumes were calculated to evaluate the therapeutic efficacy.
# [3] = system: patient-derived CRC xenograft; experiment: CRC patient-derived xenograft (PDX) therapeutic evaluation; format: in vivo, human xenograft in mice; details: HE staining
# [4] = system: Cleaved caspase 3 in colon tissues; experiment: Cleaved caspase 3 immunofluorescence in colon tissues (GI toxicity); format: in vivo, mouse; details: PDX mice, CPT eq. 3 mg/kg iv twice a week, colon tissue
# intestine and liver = experiment: Organ histology (Supplementary Fig. 6); format: in vivo, mouse
# HCT116 cells [5] = experiment: Endocytosis inhibition assay (FITC-P-LPK internalization); format: cell-based, human; details: 10 µM, 30 min pre-treatment, then FITC-P-LPK 2 h; NC vs CPZ p = 0.0001
# Method: Fig. 6 P-LPK bound to SLC1A5 and entered CRC cells through endocytosis. a, b Western blotting analysis of SLC1A5 in NCM460, HCT116, LoVo, SW480, HT29 and Colo320HSR cells. After knocking down SLC1A5 in HCT116 and HT29, the binding intensity of FITC-P-LPK to cells was observed by confocal microscopy. Bar, 10 μm. c, d Effects of different endocytosis inhibitors on the internalization of FITC-P-LPK. HCT116 cells were pre-treated with 10 µM chlorpromazine, 50 μM methyl-β-cyclodextrin, 20 µM Amiloride hydrochloride for 30 min at 37 °C. Subsequently, the cells were incubated with FITC-P-LPK for 2 h. Then the fluorescence intensity was observed by confocal microscopy and detected using a multi-well plate reader (n = 5, means ± SD, NC vs CPZ, p = 0.0001; NC vs MβCD, p = 0.9069; NC vs EIPA, p = 0.9812) (****p < 0.0001). Bar, 10 μm. e The competition experiment with SLC1A5 substrates glutamine. FITC-P-LPK was incubated with increasing concentrations (0–32 mM) of glutamine in HCT116 cells at 37 °C for 2 h. The fluorescence intensity was measured in a multi-well plate reader (n = 5, means ± SD).
# Chlorpromazine (CPZ), amiloride (AMI), and methyl-β-cyclodextrin (MCD) were purchased from MedChem Express. […] Then the fluorescence intensity was detected using a multi-well plate reader (BioTek synergy4) and observed by confocal laser scanning microscopy.
# HCT116 cells [6] = experiment: FITC-peptide binding, confocal fluorescence intensity; format: cell-based, human; details: FITC labeled, immunofluorescence
# Method: NCM460, Colo320HSR, HCT116, LoVo, HT29 and SW480 cells were respectively incubated with FITC-labeled P-LPK (Random peptide P-CON) peptides for 2 h at 37 °C and washed with PBS for three times. The cells were fixed with 4% paraformaldehyde for 30 min at room temperature, and then 4,6-diamidino-2-phenylindole (DAPI) was used for nucleic acid stain. A laser scanning confocal microscope was used to visualize the cells. The fluorescence intensity was analyzed using the Image-Pro Plus 6.0 software. For cell localization experiment, 20 μg/ml rhodamine-labeled peptides were incubated with NCM460 and HCT116 for 2 h, and then washed with PBS for three times. After that, the cell membrane was stained with a blue cell membrane probe (Thermo Fisher Scientific, Cat. No. W11263). The binding of Rhodamine-P-LPK to cells and their localization in cells was observed under a confocal microscope.
# recombinant SLC1A5 [7] = target: T1, recombinant SLC1A5; experiment: Surface plasmon resonance, Biacore T200; format: binding; details: Biacore T200, CM5 chip, peptide 25–400 μM, 1×PBS with 5% DMSO, 0.05% Tween 20, pH 7.4; read-out: KD (SPR)
# Method: A surface plasmon resonance-based method using the Biacore T200 platform was developed to detect the binding of peptide (25–400 μM) to recombinant SLC1A5. The sensor chip CM5, 1 × PBS (2 mM KH2PO4, 10 mM Na2HPO4, 137 mM NaCl, 2.7 mM KCl) with 5% DMSO, 0.05% Tween 20 buffer (pH 7.4), and the amine coupling kit (which includes EDC, NHS, and ethanolamine reagents) were all obtained from GE Healthcare. The sensor chip CM5 was activated using EDC and NHS reagents, according to the standard procedure for amine coupling. 20 μg/ml SLC1A5 (about 10 μg proteins in 0.5 ml 10 mM Sodium Acetate buffer) was then covalently immobilized to the chip surface CM5 under 10 mM Sodium Acetate (pH 4.5) buffer. The resulting differences in resonance units (RU) were about 4000 RU. After de-activation by ethanolamine and washing with 1×PBS with 5% DMSO, 0.05% Tween 20 buffer (pH 7.4), the prepared sensor chip was applied to Biacore T200 for the binding assay. 1×PBS with 5% DMSO, 0.05% Tween 20 buffer (pH 7.4) was used as running buffer. A one-minute injection of a solution of 10 mM Glycine-HCl, pH 3.0 was used to regenerate the chip surface.
# in vivo [8] = experiment: in vivo; set-up: species or system human xenograft in BALB/c nude mice; details: female, BALB/c nude, mouse, iv, 3.7 MBq, total radioactivity, T/NT ratio
# Method: (§2) To obtain ^68Ga, 0.1 M HCl was used to elute a ^68Ge-^68Ga generator. The radioactivity of eluate was monitored. The radioactive elution peak was collected for ^68Ga radiolabeling experiment. An aliquot of 150 μg of compound P-LPK or P-CON was put in a glass vial and dissolved with 0.2 M sodium acetate/acetic acid buffer, pH 3.8. Then ^68GaCl3 tracer was added, and the pH was adjusted to fall in a range of 3.5~4 with 0.1 M NaOH. The solution was stored at room temperature for 0.5 h. The radiochemical purities of ^68Ga-P-LPK and ^68Ga-P-CON were measured with thin-layer chromatography (TLC), using silica gel-impregnated glass fiber stripe (iTLC SG) and 0.25 M sodium citrate/citric acid buffer as mobile phase. ^68GaCl3 was used as a control.
# (§3) Each U87 and HCT116 tumor-bearing mouse was injected in a tail vein with 3.7 MBq (100 μCi, 0.1 nmol in 100 μl) of ^68Ga-P-LPK or ^68Ga-P-CON under isoflurane anesthesia (n = 4 per group). For static PET, 5-min scans were acquired at 30 min, 60 min, and 120 min after injection. The maximum radioactivity concentrations within a tumor or an organ were obtained from mean pixel values within the multiple regions of interest (ROI) volume.
# in vivo [9] = experiment: in vivo; set-up: species or system human xenograft in BALB/c nude mice; details: female, BALB/c nude, mouse, iv, 3.7 MBq, total radioactivity, T/NT ratio; remark: listed apart in the source
# Method: as §2, §3
# (§4) For the blocking experiment, unlabeled P-LPK was first injected into mice (n = 3 per group), and 3.7 MBq ^68Ga-P-LPK was then injected. Static PET images were acquired at 30 min, 60 min and 120 min post-injection.
# HCT116 tumors [10] = experiment: in vivo; set-up: species or system human xenograft in BALB/c nude mice; details: for T/NT ratio, unblock: female, BALB/c nude, mouse, iv, 3.7 MBq
# Method: as §2, §3, §4
# recombinant SLC1A5 [11] = target: T2, recombinant SLC1A5; experiment: SPR; Biacore T200; SLC1A5 covalently immobilised by amine coupling on a CM5 chip (about 4000 RU); peptide 25-400 uM as analyte; running buffer 1x PBS with 5% DMSO, 0.05% Tween 20, pH 7.4; details: both partners purified
# [12] = relative to DMSO = 1, replicate 1
# [13] = relative to DMSO = 1, replicate 2
# [14] = relative to DMSO = 1, replicate 3
molecule,measurement,setting,value
"CC[C@@]1(O)C(=O)OCc2c1cc1n(c2=O)Cc2cc3ccccc3nc2-1 [CPT, camptothecin]",Proportion of cells in the DNA synthesis state,HCT116 cells [1]; [12],1.278
same,Proportion of cells in the DNA synthesis state,HCT116 cells [1]; [13],0.9932
same,Proportion of cells in the DNA synthesis state,HCT116 cells [1]; [14],0.9243
same,Proportion of cells in the DNA synthesis state,LoVo cells; [12],0.9805
same,Proportion of cells in the DNA synthesis state,LoVo cells; [13],0.8341
same,Proportion of cells in the DNA synthesis state,LoVo cells; [14],1.054
same,Proportion of cells in the DNA synthesis state,NCM460 cells; [12],1.185
same,Proportion of cells in the DNA synthesis state,NCM460 cells; [13],1.136
same,Proportion of cells in the DNA synthesis state,NCM460 cells; [14],0.9381
same,Mortality during treatment,HCT116 tumors [2],More than half of the mice; also recorded: more than half of mice treated with CPT died of side effects
same,Tumor histology (cancer cells in tumor tissue),[3],almost maintained its original morphological features
same,Quantification of Cleaved caspase 3,"[4]; CPT vs P-LPK-CPT p = 0.0051, replicate 1",24
same,Quantification of Cleaved caspase 3,[4]; replicate 2,11
same,Quantification of Cleaved caspase 3,[4]; replicate 3,14
same,Quantification of Cleaved caspase 3,[4]; replicate 4,10
same,Quantification of Cleaved caspase 3,[4]; replicate 5,13
same,Damage to intestine and liver,intestine and liver,significantly increased
same,Antitumor activity / cytotoxicity,CRC cells; 10 nM (CPT equivalent),no obvious toxicity to CRC cells
same,Antitumor activity / cytotoxicity,CRC cells; 100 nM,obvious cytotoxicity effects
"CN(C)CCCN1c2ccccc2Sc2ccc(Cl)cc21 [CPZ, chlorpromazine]",Effect on cellular internalization of FITC-P-LPK,HCT116 cells [5],exhibited the highest inhibitory effect; also recorded: remarkably decreased the cellular internalization of FITC-P-LPK
APATVSSDMSLA [FITC-P-MUT],Fluorescence intensity of mutant peptide bound to cells,HCT116 cells [6],significantly reduced
DLPSRTSALASG [P-CON],Kd,recombinant SLC1A5 [7],126 µM
"LPKTVSSDMSLN [68Ga-P-LPK, metal not drawn]",tissue to tissue ratio at 0.5 h,in vivo [8],1.68
same,tissue to tissue ratio at 1 h,in vivo [8],1.47
same,tissue to tissue ratio at 2 h,in vivo [8],1.28
same,tissue to tissue ratio at 0.5 h,in vivo [9],2.85
same,tissue to tissue ratio at 1 h,in vivo [9],2.38
same,tissue to tissue ratio at 2 h,in vivo [9],1.87
same,tissue to tissue ratio at 0.5 h,in vivo [9]; block,0.41
same,tissue to tissue ratio at 1 h,in vivo [9]; block,1.17
same,tissue to tissue ratio at 2 h,in vivo [9]; block,0.79
same,tissue to tissue ratio at 0.5 h,in vivo [9]; unblock,0.82
same,tissue to tissue ratio at 1 h,in vivo [9]; unblock,2.91
same,tissue to tissue ratio at 2 h,in vivo [9]; unblock,2.31
same,T/NT ratios after blocking,HCT116 tumors [10],significantly reduced
same,T/NT ratios vs 68Ga-P-CON,HCT116 tumors [10],significantly increased
same,Tumor binding after pre-injection with unlabeled P-LPK,HCT116 tumors [10],dramatically attenuated
same,"T/NT ratio, unblock",HCT116 tumors [10]; 0.5 h,0.51
same,"T/NT ratio, unblock",HCT116 tumors [10]; 1 h,2.47
B1,Kd,recombinant SLC1A5 [11],~1.19 µM
